Tests used:
[1] = Plasma pharmacokinetics of betahistine and 2-PAA after oral dosing in UVN cats (LC-MS/MS, non-compartmental analysis); type: in vivo, cat; conditions: days 1 and 21
Method: The experiments were performed on nine adult male UVN cats randomly allocated into three groups of cats. Three groups of three adult male cats received 0.2 mg/kg betahistine (N = 3: cats 1–3), 2 mg/kg betahistine (N = 3: cats 4–6), or 0.2 mg/kg betahistine plus 1 mg/kg selegiline (N = 3: cats 7–9). […] The samples were frozen at −80°C until analysis. Pharmacokinetic parameters of betahistine and its major metabolite 2-PAA were calculated by applying non-compartmental analysis.
Betahistine and its internal standard, betahistine-d3, were extracted by liquid/liquid extraction from plasma under alkaline conditions toward 1-butanol/isooctane, followed by a second liquid/liquid extraction step of acidic 1-butanol/isooctane toward water. Betahistine concentration in plasma was analyzed using a validated LC-MS/MS method. In brief, an API 4000 (Applied Biosystems) mass spectrometer coupled with a Symbiosis HPLC system (Sparks, Emmen, The Netherlands) was employed to analyze betahistine. Extracts (100 μl) were injected into a XTerra RP18 150 ^* 4.6 mm, 3.5 μm column (Waters, Etten-Leur, The Netherlands) and separated at 30°C under isocratic conditions using an aqueous metanol solution containing 0.5 mM ammonium formate as mobile phase. Betahistine was quantified by a tandem mass spectrometer in positive MRM. Parent daughter transition was followed for betahistine (m/z 137 > 94). Betahistine-d3 dihydrochloride was used as internal standard. Pharmacokinetic parameters of betahistine were calculated by applying non-compartmental analysis using the validated PK software WinNonLin, version 5.23 (Pharsight Corporation, Mountain View, CA, USA).
Cmax and tmax were derived directly from the plasma concentration-time curves. Linear trapezoidal rule was used to calculate AUC0-t during the part of the curve with increasing plasma concentrations. For the descending part of the curve, the log-linear trapezoidal rule was used. Calculation of the elimination half-life (t1/2) was evaluated as ln 2/kel, with kel as the slope of the terminal phase of the plasma concentration-time curve.

cochlear blood flow = system: cochlear blood flow; parameters: method as in PMID 25014609; conditions: guinea pig model ref 29; cited from earlier work

Effect of selegiline co-administration on 2-PAA Cmax-values [1] | SMILES | Increase in cochlear blood flow (cochlear blood flow)
strongly reduced | O=C(O)Cc1ccccn1 [2-PAA, 2-pyridylacetic acid] | not
– | OCCc1ccccn1 [hydroxyethylpyridine] | observed
– | NCCc1ccccn1 [aminoethylpyridine] | observed

Reference: publication PMC6005348, “Betahistine Treatment in a Cat Model of Vestibular Pathology: Pharmacokinetic and Pharmacodynamic Approaches” (Frontiers in Neurology, 2018)
